In brackets after ≈: the same amount, converted by molar mass.
Tests used:
[1] = test system: IL-2 production of T cells (Jurkat cells); assay: IL-2 production inhibitory activity (Jurkat cells stimulated with concanavalin A; IL-2 determined by CTLL-2 bioassay/MTT); format: cell-based, human; conditions: 24 hours
Protocol: It is known that the immunosuppressant action of cyclosporins is based on inhibition of the IL-2 gene of T cells. Therefore, the biological activity of cyclosporins can be assayed using inhibition of the IL-2 production of T cells as an indicator. Accordingly, using Jurkat cells (a tumor cell line derived from human T cells), the biological activity of the compound of the invention was evaluated.
Jurkat cells grown to the logarithmic phase in RPMI-1640 medium (Flow Laboratories; 10% heat-inactivated FBS, 300 mg/l L-glutamine, 50 U/ml streptomycin, 50 U/ml penicillin, 25 mM Hepes, 50 µM 2-mercaptoethanol) were seeded onto a 96-well microtiter plate at a density of 8x10^5 cells/ml, 0.1 ml/well. Then, as an IL-2 production inducer, 10 µl of concanavalin A was added, followed by addition of 20 µl each of samples varying in concentration. After the final volume was adjusted to 0.2 ml/well with the medium, the plate was incubated in a CO2 incubator at 37°C for 24 hours. After completion of culture, the reaction mixture in each well was centrifuged (1000 rpm x 5 min.) and the supernatant was recovered.
Determination of IL-2 was carried out by the bioassay using CTLL-2 cells which are known as IL-2-dependent cells.
To 0.1 ml of CTLL-2 cells (40,000/ml) in logarithmic phase, 0.1 ml of an appropriate dilution of the above supernatant was added, and the cells were cultured in a CO2 incubator at 37°C for 48 hours. After completion of culture, the cell growth was determined by the MTT assay. The relation between growth of CTLL-2 cells and IL-2 concentration was previously plotted for a recombinant IL-2 and using the plots as a standard curve, the IL-2 concentration was estimated from the degree of growth of CTLL-2 cells.
The IL-2 production inhibition rate was calculated by means of the following equation (1) and the IC50 value of each sample was calculated from the inhibition rates at various concentrations. IL-2 production inhibition rate (%) = (1-(IL-2 production by cells in presence of sample)/(IL-2 production by cells in absence of sample)) x100 [formula]

[2] = Absorption after oral administration and release of the phosphate group (blood concentration by HPLC); format: in vivo; conditions: SD rats, oral 30 mg/kg; for level at 0.5 h / level at 1 h / level at 2 h / level at 4 h / level at 8 h / level at 24 h: rat, blood, read-out: Blood concentration of the administered compound (unchanged)
Protocol: Each blood sample was centrifuged (10,000 rpm x 5 min.) and the supernatant was applied onto a pretreatment column (Sep-Pack C18 Vac, Waters). After the column was rinsed with distilled water and 40% methanol, elution was carried out in 10% steps from 50% methanol to 100% methanol and 50 µl of the eluate was injected into an HPLC. From the concentration value thus found, the blood concentration was calculated.

physchem = conditions: water
Protocol: From each test tube, 250 µl was taken into a centrifuge tube and centrifuged (10,000 rpm x 10 min.). The supernatant was recovered, diluted with distilled water, and subjected to HPLC for assay.
Column: Inertsil C8 (4.6x250 mm) Mobile phase: acetonitrile-methanol-distilled water-phosphoric acid (50:35:15:0.005) Column temperature: 75°C Detection: UV 210 nm

[3] = rat, in vivo
Protocol: Nephrotoxicity was investigated by the lithium clearance method.
Each sample was adjusted to a concentration of 5 mg/ml and 2 ml/kg was administered intraperitonally for 7 consecutive days. The control group similarly received the solvent used for preparation of the sample solutions. […] On the following day the blood was drawn from the jugular vein and the animals were placed in metabolism cages. Under feeding with the lithium diet, the 24-hour urine was collected and the urine volume was measured using a measuring cylinder. After the rats were taken out from the metabolism cages, blood sampling was immediately carried out and the mean lithium value of two measurements before and after urine collection was taken as the blood lithium value of the corresponding rat. The body weight of rats was determined immediately after they were taken out from metabolism cages. To determine the blood lithium concentration, each blood sample was centrifuged at 3000 rpm for 10 minutes and the plasma was taken for determination. […] 24-hr CLi /100 g = urine volume x 100/rat body weight · urinary Li value/blood Li value [formula]

With `C/C=C/C[C@@H](C)[C@@H](O)[C@H]1C(=O)N[C@@H]([C@@H](C)OP(=O)(O)O)C(=O)N(C)CC(=O)N(C)[C@@H](CC(C)C)C(=O)N[C@@H](C(C)C)C(=O)N(C)[C@@H](CC(C)C)C(=O)N[C@@H](C)C(=O)N[C@H](C)C(=O)N(C)[C@@H](CC(C)C)C(=O)N(C)[C@@H](CC(C)C)C(=O)N(C)[C@@H](C(C)C)C(=O)N1C` [[Phosphonothreonine^2]cyclosporin A, [phosphonothreonine^2]cyclosporin A] the “IL-2 production inhibitory concentration (IC50 ng/ml)” value [1] was 49 ng/mL.
With `C/C=C/C[C@@H](C)[C@@H](O)[C@H]1C(=O)N[C@@H](CC)C(=O)N(C)CC(=O)N(C)[C@@H](CC(C)C)C(=O)N[C@@H](C(C)C)C(=O)N(C)[C@@H](CC(C)C)C(=O)N[C@@H](C)C(=O)N[C@H](CO)C(=O)N(C)[C@@H](CC(C)C)C(=O)N(C)[C@@H](CC(C)C)C(=O)N(C)[C@@H](C(C)C)C(=O)N1C` [[D-serine^8]cyclosporin A, reference compound] the “IL-2 production inhibitory concentration (IC50 ng/ml)” value [1] was 6 ng/mL, the “Sum of blood concentrations up to 24 hr, administered compound (unchanged)” value [2] was 8754 ng/mL and the level at 0.5 h ([2]; 0.5 hr after administration) was 895 ng/mL. For the same compound, the level at 1 h ([2]; 1 hr after administration) was 4320 ng/mL, the level at 2 h ([2]; 2 hr after administration) was 1920 ng/mL and the level at 4 h ([2]; 4 hr after administration) was 1020 ng/mL. For the same compound, the level at 8 h ([2]; 8 hr after administration) was 533 ng/mL, the level at 24 h ([2]; 24 hr after administration) was 69 ng/mL and the solubility thermodynamic at 30 min (physchem) was 35.1 µg/mL (≈ 28.8 µM).
In the case of `C/C=C/C[C@@H](C)[C@@H](O)[C@H]1C(=O)N[C@@H](CC)C(=O)N(C)CC(=O)N(C)[C@@H](CC(C)C)C(=O)N[C@@H](C(C)C)C(=O)N(C)[C@@H](CC(C)C)C(=O)N[C@@H](C)C(=O)N[C@H](COP(=O)(O)O)C(=O)N(C)[C@@H](CC(C)C)C(=O)N(C)[C@@H](CC(C)C)C(=O)N(C)[C@@H](C(C)C)C(=O)N1C` [[Phosphono-D-serine^8]cyclosporin A, [phosphono-D-serine^8]cyclosporin A], the “Sum of blood concentrations up to 24 hr, Sum of (2) and (3)” value [2] is reported as 13501 ng/mL, the “Sum of blood concentrations up to 24 hr, [D-serine^8]cyclosporin A which released phosphoric acid” value [2] is reported as 10448 ng/mL and the “Sum of blood concentrations up to 24 hr, administered compound (unchanged)” value [2] is reported as 3053 ng/mL. For the same compound, the “Blood concentration of [D-serine^8]cyclosporin A which released phosphoric acid” value ([2]; 0.5 hr after administration) was 1413 ng/mL, the “Blood concentration, Sum of (2) and (3) (released plus unchanged compound)” value ([2]; 0.5 hr after administration) was 1804 ng/mL and the “Blood concentration of [D-serine^8]cyclosporin A which released phosphoric acid” value ([2]; 1 hr after administration) was 3115 ng/mL. The “Blood concentration, Sum of (2) and (3) (released plus unchanged compound)” value ([2]; 1 hr after administration) was 3928 ng/mL, the “Blood concentration of [D-serine^8]cyclosporin A which released phosphoric acid” value ([2]; 2 hr after administration) was 2516 ng/mL and the “Blood concentration, Sum of (2) and (3) (released plus unchanged compound)” value ([2]; 2 hr after administration) was 3437 ng/mL. For the same compound, the “Blood concentration of [D-serine^8]cyclosporin A which released phosphoric acid” value ([2]; 4 hr after administration) was 2391 ng/mL, the “Blood concentration, Sum of (2) and (3) (released plus unchanged compound)” value ([2]; 4 hr after administration) was 2927 ng/mL and the “Blood concentration of [D-serine^8]cyclosporin A which released phosphoric acid” value ([2]; 8 hr after administration) was 910 ng/mL. The “Blood concentration, Sum of (2) and (3) (released plus unchanged compound)” value ([2]; 8 hr after administration) was 1221 ng/mL, the “Blood concentration of [D-serine^8]cyclosporin A which released phosphoric acid” value ([2]; 24 hr after administration) was 103 ng/mL and the “Blood concentration, Sum of (2) and (3) (released plus unchanged compound)” value ([2]; 24 hr after administration) was 134 ng/mL. It also gave a level at 0.5 h ([2]; 0.5 hr after administration) of 391 ng/mL, a level at 1 h ([2]; 1 hr after administration) of 813 ng/mL and a level at 2 h ([2]; 2 hr after administration) of 971 ng/mL. The level at 4 h ([2]; 4 hr after administration) was 536 ng/mL, the level at 8 h ([2]; 8 hr after administration) was 311 ng/mL and the level at 24 h ([2]; 24 hr after administration) was 31 ng/mL.
With `C/C=C/C[C@@H](C)[C@@H](O)[C@H]1C(=O)N[C@@H]([C@@H](C)O)C(=O)N(C)CC(=O)N(C)[C@@H](CC(C)C)C(=O)N[C@@H](C(C)C)C(=O)N(C)[C@@H](CC(C)C)C(=O)N[C@@H](C)C(=O)N[C@H](C)C(=O)N(C)[C@@H](CC(C)C)C(=O)N(C)[C@@H](CC(C)C)C(=O)N(C)[C@@H](C(C)C)C(=O)N1C` [Cyclosporin C] the “IL-2 production inhibitory concentration (IC50 ng/ml)” value [1] was 12 ng/mL, the nephrotoxicity [3] was “nephrotoxic” and the solubility thermodynamic at 30 min (physchem) was 29.7 µg/mL (≈ 24.4 µM).
